# What was measured:
# [1] = biological target: Lanosterol 14-alpha demethylase (Candida albicans (strain SC5314 / ATCC MYA-2876) (Yeast), UniProt P10613); assay: Inhibition of CYP51 in Candida albicans assessed as inhibition of microbe growth incubated for 48 hrs by CLSI M27-A3 guideline based method
# Cytochrome P450 3A4 = Cytochrome P450 3A4 (Homo sapiens, UniProt P08684); assay: Inhibition of CYP3A4 in human hepatocyte microsomes using testosterone substrate by HPLC/MS/MS method; assay type: ADME
# Cytochrome P450 2C9 = Cytochrome P450 2C9 (Homo sapiens, UniProt P11712); assay: Inhibition of CYP2C9 in human hepatocyte microsomes using diclofenac substrate by HPLC/MS/MS method; assay type: ADME
# [2] = biological target: T1, Cytochrome P450 11B1, mitochondrial (Homo sapiens, UniProt P15538); assay: Inhibition of CYP11B1 in human hepatocyte microsomes using deoxycortisol substrate by HPLC/MS/MS method; assay type: ADME
# T1 sequence (P15538 whole entry): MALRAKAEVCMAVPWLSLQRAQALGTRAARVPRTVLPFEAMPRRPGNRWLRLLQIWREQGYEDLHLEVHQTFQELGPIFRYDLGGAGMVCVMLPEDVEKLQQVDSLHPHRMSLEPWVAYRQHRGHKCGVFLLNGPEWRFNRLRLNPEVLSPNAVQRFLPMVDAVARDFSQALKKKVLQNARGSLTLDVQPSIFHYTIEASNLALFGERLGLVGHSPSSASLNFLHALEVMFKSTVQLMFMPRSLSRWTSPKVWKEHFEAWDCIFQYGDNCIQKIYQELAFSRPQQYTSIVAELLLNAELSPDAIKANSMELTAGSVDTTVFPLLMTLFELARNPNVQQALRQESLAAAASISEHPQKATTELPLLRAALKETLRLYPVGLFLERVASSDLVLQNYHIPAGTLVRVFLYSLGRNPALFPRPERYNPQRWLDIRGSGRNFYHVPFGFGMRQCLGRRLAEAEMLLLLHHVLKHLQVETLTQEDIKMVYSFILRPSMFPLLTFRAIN
# [3] = biological target: T2, Steroid 17-alpha-hydroxylase/17,20 lyase (Homo sapiens, UniProt P05093); assay: Inhibition of CYP17 lyase in human hepatocyte microsomes using 17a-hydroxypregnenolone substrate by HPLC/MS/MS method; assay type: ADME
# T2 sequence (P05093 whole entry): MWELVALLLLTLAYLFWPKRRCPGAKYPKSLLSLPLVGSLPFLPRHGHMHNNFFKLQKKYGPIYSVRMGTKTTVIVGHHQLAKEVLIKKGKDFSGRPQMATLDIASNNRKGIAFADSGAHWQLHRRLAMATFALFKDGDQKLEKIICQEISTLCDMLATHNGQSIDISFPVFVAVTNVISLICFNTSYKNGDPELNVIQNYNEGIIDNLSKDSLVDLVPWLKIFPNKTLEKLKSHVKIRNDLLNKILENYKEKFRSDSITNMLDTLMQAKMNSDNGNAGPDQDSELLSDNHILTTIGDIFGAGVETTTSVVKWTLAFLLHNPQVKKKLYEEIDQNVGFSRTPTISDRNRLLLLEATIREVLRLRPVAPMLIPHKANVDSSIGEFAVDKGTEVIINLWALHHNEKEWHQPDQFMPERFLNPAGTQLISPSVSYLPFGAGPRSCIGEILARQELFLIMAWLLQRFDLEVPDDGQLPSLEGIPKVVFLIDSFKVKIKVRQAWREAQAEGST
# [4] = biological target: T2, Steroid 17-alpha-hydroxylase/17,20 lyase; assay: Inhibition of CYP17 hydroxylase in human hepatocyte microsomes using pregnenolone substrate by HPLC/MS/MS method; assay type: ADME
# [5] = Cmax in Swiss albino mouse at 5 mg/kg, po measured during 0.5 to 48 hrs post dose by HPLC/MS/MS method; assay type: ADME, organism-based; design: dose 5 mg/kg, route oral; details: in vivo
# [6] = Half life in Swiss albino mouse plasma at 5 mg/kg, po measured during 0.5 to 48 hrs post dose by HPLC/MS/MS method; assay type: ADME, organism-based
# Kidney [7] = assay: Drug level in Swiss albino mouse kidney at 5 mg/kg, po after 48 hrs assessed as relative Cmax level relative to plasma drug level by HPLC/MS/MS method; assay type: ADME, organism-based; details: other tissue
# Kidney [8] = assay: Drug level in Swiss albino mouse kidney at 5 mg/kg, po after 48 hrs assessed as relative AUC (48 hrs) level relative to plasma drug level by HPLC/MS/MS method; assay type: ADME, organism-based; details: other tissue
# Lung = assay: Drug level in Swiss albino mouse lung at 5 mg/kg, po after 48 hrs assessed as relative Cmax level relative to plasma drug level by HPLC/MS/MS method; assay type: ADME, organism-based; details: in vivo
# [9] = Half life in Swiss albino mouse lung at 5 mg/kg, po measured during 0.5 to 48 hrs post dose by HPLC/MS/MS method; assay type: ADME, organism-based
# [10] = Half life in Swiss albino mouse brain at 5 mg/kg, po measured during 0.5 to 48 hrs post dose by HPLC/MS/MS method; assay type: ADME, organism-based
# [11] = biological target: Cytochrome P450 2C19, Homo sapiens (UniProt P33261); assay: Inhibition of CYP2C19 in human hepatocyte microsomes using omeprazole substrate by HPLC/MS/MS method
# Sequence of Cytochrome P450 2C19, Homo sapiens (P33261 whole entry, looked up): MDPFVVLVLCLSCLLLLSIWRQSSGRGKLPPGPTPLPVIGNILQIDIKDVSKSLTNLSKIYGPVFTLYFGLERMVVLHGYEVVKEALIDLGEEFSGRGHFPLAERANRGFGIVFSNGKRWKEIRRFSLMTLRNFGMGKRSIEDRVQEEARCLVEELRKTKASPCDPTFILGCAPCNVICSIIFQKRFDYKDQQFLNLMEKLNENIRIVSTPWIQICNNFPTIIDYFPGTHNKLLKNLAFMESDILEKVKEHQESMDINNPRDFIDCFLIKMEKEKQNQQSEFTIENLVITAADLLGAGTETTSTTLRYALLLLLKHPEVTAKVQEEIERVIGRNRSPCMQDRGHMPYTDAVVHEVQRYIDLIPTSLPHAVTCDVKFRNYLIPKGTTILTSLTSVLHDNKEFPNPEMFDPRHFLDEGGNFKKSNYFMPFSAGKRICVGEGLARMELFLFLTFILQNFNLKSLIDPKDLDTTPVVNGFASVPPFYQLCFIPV
# Sequence of Cytochrome P450 3A4 (P08684 whole entry): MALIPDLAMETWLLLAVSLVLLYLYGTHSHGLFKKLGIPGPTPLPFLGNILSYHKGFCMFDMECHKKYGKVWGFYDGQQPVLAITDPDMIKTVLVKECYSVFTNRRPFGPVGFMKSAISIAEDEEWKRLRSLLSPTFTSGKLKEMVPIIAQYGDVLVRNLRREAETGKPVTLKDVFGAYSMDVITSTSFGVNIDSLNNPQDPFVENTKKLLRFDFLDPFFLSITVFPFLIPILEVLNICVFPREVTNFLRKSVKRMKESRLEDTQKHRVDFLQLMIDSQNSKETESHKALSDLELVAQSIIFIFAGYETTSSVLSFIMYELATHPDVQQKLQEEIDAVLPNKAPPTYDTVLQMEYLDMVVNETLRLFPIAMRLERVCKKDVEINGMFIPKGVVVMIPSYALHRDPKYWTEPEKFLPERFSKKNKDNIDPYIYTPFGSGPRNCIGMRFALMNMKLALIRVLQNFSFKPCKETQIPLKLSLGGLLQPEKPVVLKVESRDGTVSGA
# Sequence of Cytochrome P450 2C9 (P11712 whole entry): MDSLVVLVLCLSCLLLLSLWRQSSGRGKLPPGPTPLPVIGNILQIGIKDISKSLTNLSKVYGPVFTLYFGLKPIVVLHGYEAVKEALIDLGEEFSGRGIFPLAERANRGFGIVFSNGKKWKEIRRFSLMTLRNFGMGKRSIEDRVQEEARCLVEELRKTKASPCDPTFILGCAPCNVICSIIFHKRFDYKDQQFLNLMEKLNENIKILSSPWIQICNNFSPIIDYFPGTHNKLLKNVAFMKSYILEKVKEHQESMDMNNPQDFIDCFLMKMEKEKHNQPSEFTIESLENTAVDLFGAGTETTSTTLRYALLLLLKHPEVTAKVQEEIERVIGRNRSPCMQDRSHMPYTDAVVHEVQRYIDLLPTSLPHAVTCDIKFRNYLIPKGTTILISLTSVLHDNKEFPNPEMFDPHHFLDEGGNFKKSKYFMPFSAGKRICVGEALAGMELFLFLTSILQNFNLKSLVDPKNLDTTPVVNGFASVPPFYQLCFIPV
# Sequence of Lanosterol 14-alpha demethylase (P10613 whole entry): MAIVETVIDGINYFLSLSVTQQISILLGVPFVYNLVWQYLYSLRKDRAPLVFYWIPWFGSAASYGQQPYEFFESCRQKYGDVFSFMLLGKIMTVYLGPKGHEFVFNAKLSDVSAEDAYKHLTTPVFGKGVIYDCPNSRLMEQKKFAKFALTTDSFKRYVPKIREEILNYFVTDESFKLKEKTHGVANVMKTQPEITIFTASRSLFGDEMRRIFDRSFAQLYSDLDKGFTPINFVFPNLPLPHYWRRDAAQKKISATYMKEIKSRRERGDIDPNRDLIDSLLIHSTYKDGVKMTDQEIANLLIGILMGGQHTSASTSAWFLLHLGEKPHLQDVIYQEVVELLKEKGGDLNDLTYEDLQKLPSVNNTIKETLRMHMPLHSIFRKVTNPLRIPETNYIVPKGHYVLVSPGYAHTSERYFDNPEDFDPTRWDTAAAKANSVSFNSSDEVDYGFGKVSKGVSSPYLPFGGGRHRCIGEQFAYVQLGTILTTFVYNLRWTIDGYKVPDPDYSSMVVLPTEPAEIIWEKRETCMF
compound,measurement,setting,value
"N#Cc1ccc(COc2ccc(C#Cc3ccc(C(F)(F)C(O)(Cn4cnnn4)c4ccc(F)cc4F)nc3)cc2)cc1 (single isomer, unassigned; (+))",MIC50,[1],7.8 ng/mL
same,IC50,Cytochrome P450 3A4,> 200 µM
same,IC50,Cytochrome P450 2C9,> 200 µM
same,IC50,[2],> 100 µM
same,IC50,[3],38 µM
same,IC50,[4],> 100 µM
same,Cmax,[5],2500 ng/mL
same,half-life,[6],24 h
same,Drug uptake,Kidney [7],270%
same,Drug uptake,Kidney [8],268%
same,Drug uptake,Lung,116%
same,half-life,[9],16 to 19 h
same,half-life,[10],16 to 19 h
same,IC50,[11],138 µM

# — ChEMBL document CHEMBL4052712, “Design and optimization of highly-selective, broad spectrum fungal CYP51 inhibitors” (Bioorg Med Chem Lett, 2017)
